We go through four compounds from patent US20150010928A1, “MEANS AND METHODS FOR ASSESSING AN ENDOCRINE DISEASE OR DISORDER” (priority 2012, published 2015).

Molecules are shown by their SMILES. Marks after values point to notes of the source that are not given here.

This series has as its system male rats. Nature of the series: Plasma metabolite profiling (GC-MS, LC-MS, SPE-LC-MS) in male rats dosed once daily over 28 days (OECD 407). In kind it is in vivo, rat. Also on record: key to erythro-Sphingoside (d18:1) / Tricosanoic acid (C23:0) / beta-Sitosterol / Tryptophan: ratio of treated group mean to untreated control group mean. To be noted: for Glucose, ratio versus control / Lysophosphatidylcholine (C20:4), ratio versus control / Threonic acid, ratio versus control / Alanine, ratio versus control / Androstenedione, ratio versus control / Cholesterol, ratio versus control / Glycine, ratio versus control / Heptadecanoic acid (C17:0), ratio versus control / Testosterone, ratio versus control / Threonine, ratio versus control / Uric acid, ratio versus control / alpha-Tocopherol, ratio versus control: male rats, plasma; for Glucose, ratio versus control / Lysophosphatidylcholine (C20:4), ratio versus control / Threonic acid, ratio versus control: low dose; for Alanine, ratio versus control / Androstenedione, ratio versus control / Cholesterol, ratio versus control / Glycine, ratio versus control / Heptadecanoic acid (C17:0), ratio versus control / Testosterone, ratio versus control / Threonine, ratio versus control / Uric acid, ratio versus control / alpha-Tocopherol, ratio versus control / 3-O-Methylsphingosine (d18:1) / 5-O-Methylsphingosine (d18:1) / Cysteine / Lignoceric acid (C24:0) / Nervonic acid (C24:cis[15]1) / Oleic acid (C18:cis[9]1) / Stearic acid (C18:0) / alpha-Tocopherol / erythro-Sphingoside (d18:1) / threo-Sphingosine (d18:1) / Phosphatidylcholine (C16:0, C16:0) / Thyroxine (T4) / trans-4-Hydroxyproline: high dose. An outline of the steps: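 Metabolites were measured by GC-MS (derivatised) and reversed-phase LC-MS, with steroids by online SPE-LC-MS, in plasma drawn from fasted rats on days 7, 14 and 28 of once-daily dosing (5/sex/group). Values are ratios versus sex-matched untreated controls, normalized to pool samples, with Welch-test p-values.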

Regarding `C[C@]12CCC(=O)C(O)=C1CC[C@@H]1[C@@H]2CC[C@]2(C)C(=O)CC[C@@H]12` [Formestane], the “Glucose, ratio versus control” value was 0.8 * (day 7), 0.89 * (day 14) and 0.9 * (day 28). Besides, the “Lysophosphatidylcholine (C20:4), ratio versus control” value reads like this: (day 7) 0.99 *; (day 14) 0.97 *; (day 28) 0.96 *. Moreover, the “Threonic acid, ratio versus control” value is, setting by setting: (day 7) 1.27 *; (day 14) 1.24 *; (day 28) 1.44 *.

As to `O=P1(NCCCl)OCCCN1CCCl` (stereo not shown) [Ifosfamide], where the note is “day 7”, the “Alanine, ratio versus control” value worked out at 1.07; the “Androstenedione, ratio versus control” value was found to be 3.68; the “Cholesterol, ratio versus control” value was found to be 1.12; the “Glycine, ratio versus control” value worked out at 1.33. For the same compound, where the note is “day 7”, the “Heptadecanoic acid (C17:0), ratio versus control” value came to 0.94; the “Testosterone, ratio versus control” value was determined as 2.35; the “Threonine, ratio versus control” value is 1.21; the “Uric acid, ratio versus control” value was 0.57. In addition, the “alpha-Tocopherol, ratio versus control” value (day 7) came to 0.99. For the same compound, where the note is “day 14”, the “Androstenedione, ratio versus control” value was 0.21 * and the “Testosterone, ratio versus control” value is 0.21 *. For the same compound, where the note is “day 28”, the “Alanine, ratio versus control” value is given as 0.76; the “Androstenedione, ratio versus control” value is on record as 0.24 *; the “Cholesterol, ratio versus control” value is 1.13; the “Glycine, ratio versus control” value stood at 1.28. In addition, where the note is “day 28”, the “Heptadecanoic acid (C17:0), ratio versus control” value is recorded as 1.08; the “Testosterone, ratio versus control” value is recorded as 0.22 *; the “Threonine, ratio versus control” value is given as 0.88; the “Uric acid, ratio versus control” value was determined as 0.65. In addition, under “day 28”, the “alpha-Tocopherol, ratio versus control” value was 0.95.

Take `CC(=O)O[C@]1(C(C)=O)CC[C@H]2[C@@H]3C[C@H](C)C4=CC(=O)CC[C@]4(C)[C@H]3CC[C@@]21C` [Medroxyprogesterone acetat]: where the note is “day 7”, the “Alanine, ratio versus control” value was 0.73 *; the “Androstenedione, ratio versus control” value came out at 1.68; the “Cholesterol, ratio versus control” value is listed as 0.9; the “Glycine, ratio versus control” value is reported as 1.05 *. In addition, where the note is “day 7”, the “Heptadecanoic acid (C17:0), ratio versus control” value was 0.98; the “Testosterone, ratio versus control” value is listed as 2; the “Threonine, ratio versus control” value is 0.82 *; the “Uric acid, ratio versus control” value was 0.6 *. Further, for the setting “day 7”, the “alpha-Tocopherol, ratio versus control” value was 0.82 *. Where the note is “day 14”, the “Alanine, ratio versus control” value came out at 0.97; the “Androstenedione, ratio versus control” value was 0.28 *; the “Cholesterol, ratio versus control” value is reported as 0.69 *; the “Glycine, ratio versus control” value was 1.06. Where the note is “day 14”, the “Heptadecanoic acid (C17:0), ratio versus control” value came out at 0.92; the “Testosterone, ratio versus control” value is 0.22 *; the “Threonine, ratio versus control” value is 1; the “Uric acid, ratio versus control” value was 1.07. Further, the “alpha-Tocopherol, ratio versus control” value (day 14) is given as 0.82 *. For the setting “day 28”, the “Androstenedione, ratio versus control” value is listed as 0.1 * and the “Testosterone, ratio versus control” value is given as 0.08 *.

On to `Cc1cccc(C)c1N(Cn1cccn1)C(=O)CCl` [Metazachlor], for which, where the note is “m7, Table 10a”, the “3-O-Methylsphingosine (d18:1)” value is 2.88 *, the “5-O-Methylsphingosine (d18:1)” value is on record as 3.04 *, the Cysteine is 1.07^ and the “Lignoceric acid (C24:0)” value is 1.6 *. Besides, for the setting “m7, Table 10a”, the “Nervonic acid (C24:cis[15]1)” value is reported as 3.17 *, the “Oleic acid (C18:cis[9]1)” value was 1.09^, the “Stearic acid (C18:0)” value is 1.45 * and the alpha-Tocopherol is listed as 1.71 *. Besides, for the setting “m7, Table 10a”, the “erythro-Sphingoside (d18:1)” value was 2.3 * and the “threo-Sphingosine (d18:1)” value is 2.18 *. For the setting “m7, Table 10b”, the “Oleic acid (C18:cis[9]1)” value turned out to be 1.09; the “Phosphatidylcholine (C16:0, C16:0)” value came out at 0.98; the “Thyroxine (T4)” value is 0.98; the trans-4-Hydroxyproline was found to be 0.93. Moreover, where the note is “m14, Table 10a”, the “3-O-Methylsphingosine (d18:1)” value is 4.31 *, the “5-O-Methylsphingosine (d18:1)” value is recorded as 4.66 *, the Cysteine came out at 0.86 and the “Lignoceric acid (C24:0)” value was 2.38 *. Where the note is “m14, Table 10a”, the “Nervonic acid (C24:cis[15]1)” value is given as 4 *, the “Oleic acid (C18:cis[9]1)” value was 1.82 *, the “Stearic acid (C18:0)” value is on record as 2.36 * and the alpha-Tocopherol is 2.2 *. Also, under “m14, Table 10a”, the “erythro-Sphingoside (d18:1)” value is 3.47 * and the “threo-Sphingosine (d18:1)” value is 3.13 *. Where the note is “m14, Table 10b”, the “Oleic acid (C18:cis[9]1)” value is 1.82^; the “Phosphatidylcholine (C16:0, C16:0)” value is reported as 0.83 *; the “Thyroxine (T4)” value is 0.56 *; the trans-4-Hydroxyproline is 0.72 *. In addition, under “m28, Table 10a”, the “3-O-Methylsphingosine (d18:1)” value was 4.4 *, the “5-O-Methylsphingosine (d18:1)” value is on record as 4.51 *, the Cysteine was 1.41 * and the “Lignoceric acid (C24:0)” value is reported as 2.11 *. Moreover, under “m28, Table 10a”, the “Nervonic acid (C24:cis[15]1)” value was 3.63 *, the “Oleic acid (C18:cis[9]1)” value is 1.82 *, the “Stearic acid (C18:0)” value is on record as 2.59 * and the alpha-Tocopherol is on record as 2.11 *. For the setting “m28, Table 10a”, the “erythro-Sphingoside (d18:1)” value is 3.68 * and the “threo-Sphingosine (d18:1)” value is 3.33 *. Besides, where the note is “m28, Table 10b”, the “Oleic acid (C18:cis[9]1)” value is listed as 1.82^; the “Phosphatidylcholine (C16:0, C16:0)” value is 0.79 *; the “Thyroxine (T4)” value is reported as 0.74^; the trans-4-Hydroxyproline was 0.84 *.
